Results published in patent US20050208147A1, “Isolation of bivittoside D from sea cucumber and activity thereof” (Council of Scientific and Industrial Research, priority 2004, published 2005).

Experiments:
Aspergillus fumigatus = assay: In vitro antifungal MIC for molds (NCCLS M-38P); format: cell-based; set-up: mic against af: unit not given here
Method: (§1) Extracts/fractions/pure compounds obtained from B. vitiensis were tested in in-vitro antifungal activity against five pathogenic fungi in terms of minimum inhibitory concentration (mic,mg/ml) following reference methods. Mics for yeasts: Candida albicans (ca), Cryptococcus neoformans (cn) and Sporothrix schenckii (spo) were determined by broth micro-dilution method according to guide lines of nccls documents m-27a1 (National Committee for Clinical Standards (1997) reference method for broth dilution. Antifungal susceptibility testing of yeast approved standards document m-27a, nccls, wayne, Pa.) In RPMI-1640 medium buffered at pH 7.0 with 0.165 m morpholine propane sulphonic acid (mops: Sigma USA moris; Mo.). Assays were performed in flat bottomed 96 wells microlitre plate. Stock solution of products were prepared in DMSO and diluted by two-fold serial dilution. […] The susceptibilities of molds Aspergillus fumigatus (af) and Frichophyton mentagrophytes (tm) were determined by the NCCLS proposed document m-38p2 (National Committee for Clinical laboratory Standards (1997) reference method for broth dilution antifungal susceptibility testing of Aspergillus, proposed standards document m-38 p, nccls, wayne, Pa.). […]

Sporothrix schenckii = assay: In vitro antifungal MIC, broth micro-dilution (NCCLS M-27A); format: cell-based
Method: (§2) Extracts/fractions/pure compounds obtained from B. vitiensis were tested in in-vitro antifungal activity against five pathogenic fungi in terms of minimum inhibitory concentration (mic,mg/ml) following reference methods. Mics for yeasts: Candida albicans (ca), Cryptococcus neoformans (cn) and Sporothrix schenckii (spo) were determined by broth micro-dilution method according to guide lines of nccls documents m-27a1 (National Committee for Clinical Standards (1997) reference method for broth dilution. Antifungal susceptibility testing of yeast approved standards document m-27a, nccls, wayne, Pa.) In RPMI-1640 medium buffered at pH 7.0 with 0.165 m morpholine propane sulphonic acid (mops: Sigma USA moris; Mo.). Assays were performed in flat bottomed 96 wells microlitre plate. Stock solution of products were prepared in DMSO and diluted by two-fold serial dilution. The working suspension (0.5×103 to 2.5×103) of the innoculum, prepared spectrophotometrically (0.5 mc Farland turbidity standard) was made by a 1:50 dilution followed by a 1:20 dilution of the seeded broth in RPMI-1640. Suitable controls were maintained simultaneously. Plates were incubated at 35° C. and observed visually at 24 hr for ca and 48 hr cn and spo. The susceptibilities of molds Aspergillus fumigatus (af) and Frichophyton mentagrophytes (tm) were determined by the NCCLS proposed document m-38p2 (National Committee for Clinical laboratory Standards (1997) reference method for broth dilution antifungal susceptibility testing of Aspergillus, proposed standards document m-38 p, nccls, wayne, Pa.). In brief, cultures were grown on sabouraud dextrose agar at 35° C. until sporulation occurred. Spores were suspended in 0.85% normal saline and diluted in RPMI-1640 to yield 104 cf p/ml.

Cryptococcus neoformans = assay: as above; format: cell-based
Method: as §2

Candida albicans = assay: as above; format: cell-based
Method: as §2

[1] = tested on: Aspergillus niger, A. oryzae, Penicillium citrinum, P. chrysogenum, Mucor spinescens, Cladosporium herbarium, Rhodotorula rubra, Trichophyton mentagrophytes, T.; conditions: panel of eleven fungi; literature report; cited from earlier work
human spermatozoa = assay: Spermicidal activity in vitro, Sander Cramer assay; format: cell-based
Method: The spermicidal activity was determined by the Sander Cramer assay (Sander, F. V., Cramer, S. D., Human Fertility, (1941) Vol. 6, p-134) using physiological saline (0.85% NaCl). Aqueous solutions (1.0% i.e. 10 mg/ml) of different fractions of B. vitiensis were prepared in physiological saline, which were diluted further up to a concentration of 0.01%. Human semen (0.2 ml) was mixed with each test solution (1.0 ml) separately and vortexed for 10 s. A wet mount of each preparation was immediately examined under a phase contrast microscope. The lowest spermicidal concentration that completely immobilized 100% of the spermatozoa within 20 s. was referred to as MEC (minimum effective concentration). The activity was confirmed in three different semen samples with >50×10^6/ml sperm count and >50% motility.

[2] = tested on: trichophyton mentagrophytes; assay: In vitro antifungal MIC for molds (NCCLS M-38P); format: cell-based
Method: as §1

[3] = read at 48 hr, tested at 1000-1.95 mg/ml

For Bivittoside-D [K007], the mic against af (Aspergillus fumigatus; Aspergillus fumigatus) was 12.57, the “Mics against pathogenic fungi, Af” value (Aspergillus fumigatus; aspergillus fumigates, tested at 1000-1.95 mg/ml) was 12.5 μg/mi and the mic against spo (Sporothrix schenckii) was 6.25 mg/mL. The “Mics against pathogenic fungi, spo” value (Sporothrix schenckii; [3]) was 1.56 μg/mi, the mic against cn (Cryptococcus neoformans) was 6.25 mg/mL and the “Mics against pathogenic fungi, Cn” value (Cryptococcus neoformans; [3]) was 6.25 μg/mi. The mic against ca (Candida albicans) was 3.12 µg/mL, the “Mics against pathogenic fungi, ca” value (Candida albicans; read at 24 hr, tested at 1000-1.95 mg/ml) was 3.12 μg/mi and the “antifungal activities (in words)” value [1] was “significant antifungal activities”. The “spermicidal activity (in words)” value (human spermatozoa; in vitro model) was “promising spermicidal”, the “Mec (minimum effective concentration)” value (human spermatozoa; lowest concentration that completely immobilized 100% of human spermatozoa within 20 s) was 0.05% and the mic against tm [2] was 1.56 mg/mL. For the same substance, the “Mics against pathogenic fungi, tm” value ([2]; tested at 1000-1.95 mg/ml) was 1.56 μg/mi.
